Measured values as given in patent US10696675B2, “Imidazopyridopyrimidine derivative compound and use thereof” (HANMI PHARMACEUTICAL CO., LTD., priority 2016, dated 2020).
pIC50: −log10 of the molar value.

tested on: HUH7 cells; experiment: Proliferation inhibitory effect for HUH7 cells (SRB assay); format: cell-based; conditions: Homo sapiens, Huh-7, 72 hours, GI50, read-out: IC50 HUH7 Cell Line
Description: Test Example 2: Measuring Inhibitory Effect of FGFR Inhibitor Using Cell Line
The test was carried out for identifying a proliferation inhibitory effect of the compound of the present invention for HUH7 cells. HUH7 cell lines were counted and 5.0×10^3 cells were inoculated per well in a 96 well plate. After the innoculation, the cells were cultured for 24 hours in a 37 □ and 5% carbon dioxide (CO2) incubator. On the next day, the synthesized compounds were each diluted and prepared. The diluted compounds were introduced to the cell lines inoculated the previous day by concentrations, and reacted for 72 hours in a 37 □ and 5% carbon dioxide (CO2) incubator. However, to a positive control to which the compound was not added, 0.1% dimethyl sulfoxide (DMSO) diluted with a medium was introduced. To a negative control plate, a trichloroacetic acid (TCA) solution was introduced, and fixed at 4 □. After reacting for 72 hours, the medium including the compound was removed, a TCA solution was added thereto, and the cells were fixed for 30 minutes to 60 minutes at 4 □. The TCA solution was discarded, the plate was washed off with distilled water and then dried in the air. A 0.4% sulforhodamin B (SRB) solution was added to the plate and dyed for 10 minutes at room temperature. The plate was washed off with tap water including a 1% acetic acid solution, and then dried in the air. A 10 mM Trizma base solution was added to dissolve the solid SRB. Using a microplate reader, optical density (O.D. value) was measured at 540 nm. A GI50 value of each of the compounds was calculated using GraphPad Prism V6.0 Software.

Row | Compound | pIC50
1 | C=CC(=O)NC1CCCCC1Nc1ncc2cc(-c3c(Cl)c(OC)cc(OC)c3Cl)c3nccn3c2n1 (centres unmarked) [compound 2] | 6.30 to 7.30
2 | C=CC(=O)Nc1cc(N(C)C)ccc1Nc1ncc2cc(-c3c(Cl)c(OC)cc(OC)c3Cl)c3nccn3c2n1 [compound 24] | > 7.30
3 | C=CC(=O)Nc1ccccc1Nc1ncc2cc(-c3c(Cl)c(OC)cc(OC)c3Cl)c3nccn3c2n1 [Synthesis Example 6, N-(2-((6-(2,6-dichloro-3,5-dimethoxyphenyl)imidazo[1′,2′:1,6]pyrido[2,3-d]pyrimidin-2-yl)amino)phenyl)acrylamide] | > 7.30
4 | C=CC(=O)Nc1cc(N2CCN(C(=O)C3CC3)CC2)ccc1Nc1ncc2cc(-c3c(Cl)c(OC)cc(OC)c3Cl)c3nccn3c2n1 [compound 42] | > 7.30
5 | C=CC(=O)NC1CCCC1Nc1ncc2cc(-c3c(Cl)c(OC)cc(OC)c3Cl)c3nccn3c2n1 (centres unmarked) [Synthesis Example 1, N-(2-((6-(2,6-dichloro-3,5-dimethoxyphenyl)imidazo[1′,2′:1,6]pyrido[2,3-d]pyrimidin-2-yl)amino)cyclopentyl)acrylamide] | 6.30 to 7.30
6 | C=CC(=O)Nc1cc2c(cc1Nc1ncc3cc(-c4c(Cl)c(OC)cc(OC)c4Cl)c4nccn4c3n1)CCC2 [compound 57] | 6.30 to 7.30
7 | C=CC(=O)Nc1cc(C2CCN(C)CC2)ccc1Nc1ncc2cc(-c3c(Cl)c(OC)cc(OC)c3Cl)c3nccn3c2n1 [compound 23] | > 7.30
8 | C=CC(=O)Nc1cc(O[C@@H]2CCOC2)c(C)cc1Nc1ncc2cc(-c3c(Cl)c(OC)cc(OC)c3Cl)c3nccn3c2n1 [compound 60] | 6.30 to 7.30
9 | C=CC(=O)Nc1cc(-c2ncc3cc(-c4c(Cl)c(OC)cc(OC)c4Cl)c4nccn4c3n2)cc(N2CCOCC2)c1 [compound 82] | < 6.30
10 | C=CC(=O)Nc1cc(N2CCN(CC)CC2)cc(F)c1Nc1ncc2cc(-c3c(Cl)c(OC)cc(OC)c3Cl)c3nccn3c2n1 [compound 66] | < 6.30
11 | C=CC(=O)Nc1cc(F)c(F)cc1Nc1ncc2cc(-c3c(F)c(OC)cc(OC)c3F)c3nccn3c2n1 [compound 77] | 6.30 to 7.30
12 | C=CC(=O)Nc1cc(N2CCOC(C)C2)ccc1Nc1ncc2cc(-c3c(Cl)c(OC)cc(OC)c3Cl)c3nccn3c2n1 (centres unmarked) [compound 49] | > 7.30
13 | C=CC(=O)Nc1cc(N2C[C@@H](C)O[C@@H](C)C2)ccc1Nc1cc2c(cn1)cc(-c1c(Cl)c(OC)cc(OC)c1Cl)c1nccn12 [compound 84] | > 7.30
14 | C=CC(=O)Nc1cc(N2CCOCC2)cnc1Nc1ncc2cc(-c3c(Cl)c(OC)cc(OC)c3Cl)c3nccn3c2n1 [compound 70] | 6.30 to 7.30
15 | C=CC(=O)Nc1cc(OC(C)C)ccc1Nc1ncc2cc(-c3c(Cl)c(OC)cc(OC)c3Cl)c3nccn3c2n1 [compound 28] | > 7.30
16 | C=CC(=O)Nc1cn(C)nc1Nc1cc2c(cn1)cc(-c1c(Cl)c(OC)cc(OC)c1Cl)c1nccn12 [compound 87] | > 7.30
17 | C=CC(=O)Nc1cc(N2CCC(OC)CC2)ccc1Nc1ncc2cc(-c3c(Cl)c(OC)cc(OC)c3Cl)c3nccn3c2n1 [compound 40] | > 7.30
18 | C=CC(=O)Nc1cc(N2CCN(CCOC)CC2)ccc1Nc1ncc2cc(-c3c(Cl)c(OC)cc(OC)c3Cl)c3nccn3c2n1 [compound 46] | > 7.30
19 | C=CC(=O)Nc1cccc(Nc2ncc3cc(-c4c(F)c(OC)cc(OC)c4F)c4nccn4c3n2)c1 [compound 74] | > 7.30

Row | Compound | pIC50
20 | C=CC(=O)Nc1cc(N2CC[C@H](OC)C2)ccc1Nc1ncc2cc(-c3c(Cl)c(OC)cc(OC)c3Cl)c3nccn3c2n1 [compound 44] | > 7.30
21 | C=CC(=O)Nc1cc(N2CC(O)C2)ccc1Nc1ncc2cc(-c3c(Cl)c(OC)cc(OC)c3Cl)c3nccn3c2n1 [compound 45] | > 7.30
22 | COc1cc(OC)c(Cl)c(-c2cc3cnc(-c4cccc(N5CCOCC5)c4)nc3n3ccnc23)c1Cl [Synthesis Example 80, 4-(3-(6-(2,6-dichloro-3,5-dimethoxyphenyl)imidazo[1′,2′:1,6]pyrido[2,3-d]pyrimidin-2-yl)phenyl)morpholine] | < 6.30
23 | C#Cc1ccc(Nc2ncc3cc(-c4c(Cl)c(OC)cc(OC)c4Cl)c4nccn4c3n2)c(NC(=O)C=C)c1 [compound 16] | 6.30 to 7.30
24 | C=CC(=O)Nc1cc(N2CCN(CC3CC3)CC2)ccc1Nc1ncc2cc(-c3c(Cl)c(OC)cc(OC)c3Cl)c3nccn3c2n1 [compound 43] | > 7.30
25 | C=CC(=O)Nc1cc(F)cc(F)c1Nc1ncc2cc(-c3c(F)c(OC)cc(OC)c3F)c3nccn3c2n1 [compound 76] | 6.30 to 7.30
26 | C=CC(=O)Nc1cc(OC2CCN(CC)CC2)ccc1Nc1ncc2cc(-c3c(Cl)c(OC)cc(OC)c3Cl)c3nccn3c2n1 [compound 56] | > 7.30
27 | C=CC(=O)Nc1cc(N2CCOCC2)cc(OC)c1Nc1ncc2cc(-c3c(Cl)c(OC)cc(OC)c3Cl)c3nccn3c2n1 [compound 65] | 6.30 to 7.30
28 | C=CC(=O)Nc1cc(C(C)C)ccc1Nc1ncc2cc(-c3c(Cl)c(OC)cc(OC)c3Cl)c3nccn3c2n1 [compound 22] | 6.30 to 7.30
29 | COc1cc(OC)c(Cl)c(-c2cc3cnc(-c4cncc(N5CCOCC5)c4)nc3n3ccnc23)c1Cl [compound 81] | < 6.30
30 | C=CC(=O)N[C@H]1CCOC[C@H]1Nc1ncc2cc(-c3c(F)c(OC)cc(OC)c3F)c3nccn3c2n1 [compound 5] | 6.30 to 7.30
31 | COc1cc(OC)c(Cl)c(-c2cc3cnc(Nc4ccc(N5CCOCC5)cc4NC(=O)/C=C\Cl)nc3n3ccnc23)c1Cl [compound 47] | > 7.30
32 | C=CC(=O)NC1COCC1Nc1ncc2cc(-c3c(Cl)c(OC)cc(OC)c3Cl)c3nccn3c2n1 (centres unmarked) [compound 3] | 6.30 to 7.30
33 | C=CC(=O)Nc1ccccc1Nc1ncc2cc(-c3c(F)c(OC)cc(OC)c3F)c3nccn3c2n1 [compound 75] | > 7.30
34 | C=CC(=O)Nc1ccc(F)c(F)c1Nc1ncc2cc(-c3c(F)c(OC)cc(OC)c3F)c3nccn3c2n1 [compound 78] | 6.30 to 7.30
35 | C=CC(=O)Nc1cc(N2CCC(OC)C2)ccc1Nc1ncc2cc(-c3c(Cl)c(OC)cc(OC)c3Cl)c3nccn3c2n1 (centres unmarked) [compound 41] | > 7.30
36 | C=CC(=O)Nc1cc(Cl)ccc1Nc1ncc2cc(-c3c(Cl)c(OC)cc(OC)c3Cl)c3nccn3c2n1 [compound 15] | 6.30 to 7.30
37 | C=CC(=O)Nc1cccnc1Nc1ncc2cc(-c3c(Cl)c(OC)cc(OC)c3Cl)c3nccn3c2n1 [compound 69] | 6.30 to 7.30
38 | C=CC(=O)Nc1cc(F)cc(C)c1Nc1ncc2cc(-c3c(Cl)c(OC)cc(OC)c3Cl)c3nccn3c2n1 [compound 64] | < 6.30

Row | Compound | pIC50
39 | C=CC(=O)Nc1cc(N2CCCC2)ccc1Nc1ncc2cc(-c3c(Cl)c(OC)cc(OC)c3Cl)c3nccn3c2n1 [compound 33] | 6.30 to 7.30
40 | C=CC(=O)Nc1cc(F)ccc1Nc1ncc2cc(-c3c(Cl)c(OC)cc(OC)c3Cl)c3nccn3c2n1 [compound 14] | 6.30 to 7.30
41 | C=CC(=O)Nc1cc(OC2CCN(CC(F)(F)F)CC2)ccc1Nc1ncc2cc(-c3c(Cl)c(OC)cc(OC)c3Cl)c3nccn3c2n1 [compound 55] | 6.30 to 7.30
42 | C=CC(=O)Nc1ccc(N2CCN(CC)CC2)cc1Nc1ncc2cc(-c3c(Cl)c(OC)cc(OC)c3Cl)c3nccn3c2n1 [compound 13] | > 7.30
43 | C=CC(=O)Nc1cccc(C)c1Nc1ncc2cc(-c3cc(OC)cc(OC)c3)c3nccn3c2n1 [compound 8] | < 6.30
44 | C=CC(=O)Nc1cc(OC2CCN(C)CC2)c(F)cc1Nc1ncc2cc(-c3c(Cl)c(OC)cc(OC)c3Cl)c3nccn3c2n1 [compound 62] | > 7.30
45 | C=CC(=O)Nc1cc(O[C@@H]2CCOC2)c(F)cc1Nc1ncc2cc(-c3c(Cl)c(OC)cc(OC)c3Cl)c3nccn3c2n1 [compound 59] | > 7.30
46 | C=CC(=O)Nc1cc(N2CCOCC2)ccc1Nc1ncc2cc(-c3c(F)c(OC)cc(OC)c3F)c3nccn3c2n1 [compound 73] | > 7.30
47 | C=CC(=O)Nc1ccc(F)cc1Nc1ncc2cc(-c3c(Cl)c(OC)cc(OC)c3Cl)c3nccn3c2n1 [compound 12] | 6.30 to 7.30
48 | C=CC(=O)Nc1cc(OCCN(C)C)ccc1Nc1ncc2cc(-c3c(Cl)c(OC)cc(OC)c3Cl)c3nccn3c2n1 [compound 30] | > 7.30
49 | COc1cc(OC)c(Cl)c(-c2cc3cnc(Nc4ccc(N5CCOCC5)cc4NC(=O)/C=C/CN(C)C)nc3n3ccnc23)c1Cl [compound 34] | 6.30 to 7.30
50 | C=CC(=O)Nc1cccc(Cl)c1Nc1ncc2cc(-c3c(F)c(OC)cc(OC)c3F)c3nccn3c2n1 [compound 79] | 6.30 to 7.30
51 | C=CC(=O)Nc1cc(OC)ccc1Nc1ncc2cc(-c3c(Cl)c(OC)cc(OC)c3Cl)c3nccn3c2n1 [compound 26] | > 7.30
52 | C=CC(=O)N[C@H]1CCOC[C@H]1Nc1ncc2cc(-c3c(Cl)c(OC)cc(OC)c3Cl)c3nccn3c2n1 [Synthesis Example 4, N-((3S,4S)-3-((6-(2,6-dichloro-3,5-dimethoxyphenyl)imidazo[1′,2′:1,6]pyrido[2,3-d]pyrimidin-2-yl)amino)tetrahydro-2H-pyran-4-yl)acrylamide] | 6.30 to 7.30
53 | C=CC(=O)Nc1cc(N2CCN(C3CC3)CC2)ccc1Nc1ncc2cc(-c3c(Cl)c(OC)cc(OC)c3Cl)c3nccn3c2n1 [compound 51] | 6.30 to 7.30
54 | C=CC(=O)Nc1cc(CC)ccc1Nc1ncc2cc(-c3c(Cl)c(OC)cc(OC)c3Cl)c3nccn3c2n1 [compound 20] | 6.30 to 7.30
55 | C=CC(=O)Nc1cc(N2CCOCC2)cnc1Nc1cc2c(cn1)cc(-c1c(Cl)c(OC)cc(OC)c1Cl)c1nccn12 [compound 86] | > 7.30
56 | C=CC(=O)Nc1cccc(Nc2ncc3cc(-c4c(Cl)c(OC)cc(OC)c4Cl)c4nccn4c3n2)c1 [compound 7] | > 7.30
